Legend:
[1] = molecular target: T1, VDR (Homo sapiens, UniProt P11473); details: relative to active Vitamin D hormones / 1,25-hydroxyvitamin D3; cited from earlier work
T1 sequence (P11473 1-427): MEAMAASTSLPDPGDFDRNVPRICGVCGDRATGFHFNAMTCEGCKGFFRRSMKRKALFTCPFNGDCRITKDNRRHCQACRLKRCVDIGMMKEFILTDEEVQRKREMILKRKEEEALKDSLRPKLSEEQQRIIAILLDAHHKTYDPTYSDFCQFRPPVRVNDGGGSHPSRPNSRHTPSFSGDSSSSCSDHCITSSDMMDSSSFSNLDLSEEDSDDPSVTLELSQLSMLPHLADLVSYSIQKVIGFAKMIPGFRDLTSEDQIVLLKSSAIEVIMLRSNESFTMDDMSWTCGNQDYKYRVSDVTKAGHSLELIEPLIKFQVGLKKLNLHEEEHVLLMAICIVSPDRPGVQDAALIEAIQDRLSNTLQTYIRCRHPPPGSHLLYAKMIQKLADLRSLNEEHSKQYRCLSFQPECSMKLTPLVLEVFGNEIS

[2] = molecular target: T1, VDR; assay: Binding to the Vitamin D Receptor (competition with [26,27-methyl-3H]-1α,25(OH)2D3)
Procedure: Unbound radioactive ligand was removed by incubation with dextran-charcoal for 30 min on ice and pelleted by centrifugation at 2000 rpm for 10 min at 4° C. The radioactivity in 100 mL of the supernatant was measured using a scintillation counter. The control reactions contained either no VDR protein (background) or no competing ligand (maximum binding). The mean background binding was subtracted and the data divided by the mean maximum binding to yield B/Bmax values. The concentration necessary to displace 50% of [26,27-methyl-^3H]-1α,25(OH)2D3 from VDR was calculated as the B50.

[3] = test system: CYP24 expression in PMA-stimulated U937 cells; assay: CYP24 expression in PMA-stimulated U937 cells, which do not substantially express CYP27B1; format: cell-based, human; details: concentrations up to 100 nM, 6 hr
Procedure: PMA-stimulated U937 cells were maintained in RPMI media supplemented with 10 mM HEPES, 1 mM sodium pyruvate, 0.1 mM non-essential amino acids and 10% Fetal Bovine Serum at optimal cell density (between 1×10^5 cells/mL and 2×10^6 cells/mL). Prior to treatment, cells were pelleted by centrifugation and resuspended to a concentration of 5×10^5 cells/mL. Cells were then treated with phorbol myristate acetate (PMA) at a final concentration of 20 ng/ml. To each well of a 24-well plate, 1 ml of cell suspension was added, which was incubated overnight at 37° C.+5% CO2. The following day, RPMI media was replaced with fresh media and cells were treated in triplicate with vehicle or compounds at various concentrations (10^-7 to 10^-9 M) for 6 hr at 37° C. Media was removed and extraction of cellular RNA was performed using Trizol® (Invitrogen). Aliquots of RNA were reverse-transcribed to cDNA using oligo dT primers and Thermoscript reverse transcriptase according to the manufacturer's instructions (Invitrogen). Quantitative real-time PCR was performed using an ABI StepOnePlus system using the Taqman Universal PCR Master Mix. PCR reaction volumes of 20 μl were used with 50 cycles of amplification. Each cDNA sample was tested in duplicate using TaqMan® gene expression assays with the following ID numbers: human GAPDH (Hs99999905_m1), human CYP24 (Hs00167999_m1). The real-time PCR results were analyzed using the StepOne system software V2.1. Gene expression levels were calculated using the comparative CT method, and normalized to the GAPDH expression levels. The U937 cells have a low level of expression of CYP27B1 mRNA, for example compared to HPK1a-ras cells.

[4] = test system: CYP24 transcription in HPK1a-ras cells; assay: CYP24 transcription in HPK1a-ras cells (real-time PCR); format: cell-based, human; details: for concentration at which significant transcriptional activity (CYP24) is displayed / CYP24 transcription activity (in words): HPK1a-ras cells; for concentration at which significant transcriptional activity (CYP24) is displayed: 6 hr; for CYP24 transcription activity (in words): which express CYP27B1; for induction of CYP24 transcription compared to vehicle: 6 or 7 hours
Procedure: (§1) HPK1a-ras cells were maintained in Dulbecco's Modified Eagle's medium (DMEM) supplemented with 10% Fetal Bovine Serum and plated at 1×10^5 cells/well in 24-well plates. The media was exchanged after 24 hours for DMEM containing 1% Bovine Serum Albumin. Cells were treated in duplicate with Ibii and control compounds at various concentrations (10^−6 to 10^−9M) for 6 or 7 hours. Extraction of cellular RNA was performed using Trizol® (Invitrogen). Aliquots of RNA were reverse-transcribed to cDNA using random hexamers and Thermoscript reverse transcriptase according to the manufacturer's instructions (Invitrogen). Quantitative real-time PCR was performed using an ABI StepOnePlus system using the Taqman Universal PCR Master Mix. PCR reaction volumes of 20 μL were used with 50 cycles of amplification. Each cDNA sample was tested in duplicate using TaqMan® gene expression assays with the following ID numbers: human GAPDH (Hs99999905_m1), human CYP24 (Hs00167999_m1). The real-time PCR results were analyzed using the StepOne system software V2.1. Gene expression levels were calculated using the comparative CT method, and normalized to the GAPDH expression levels.
(§2) CYP24a1 transcription activity in HPK1a-ras cells was determined for prodrugs Iaii and IIaii. As with the protocol described in Example 7, HPK1a-ras cells were maintained in Dulbecco's Modified Eagle's medium (DMEM) supplemented with 10% Fetal Bovine Serum and plated at 1×10^5 cells/well in 24-well plates. Prior to treatment with compounds, cells were washed with PBS and replaced with DMEM containing 1% Bovine Serum Albumin. Cells were treated in duplicate with vehicle or compounds at various concentrations (10^-6 to 10^-9 M) for 6 hr at 37° C. Media was removed and extraction of cellular RNA was performed using Trizol® (Invitrogen). Aliquots of RNA were reverse-transcribed to cDNA using oligo dT primers and Thermoscript reverse transcriptase according to the manufacturer's instructions (Invitrogen). Quantitative real-time PCR was performed using an ABI StepOnePlus system using the Taqman Universal PCR Master Mix. PCR reaction volumes of 20 μl were used with 50 cycles of amplification. Each cDNA sample was tested in duplicate using TaqMan® gene expression assays with the following ID numbers: human GAPDH (Hs99999905_m1), human CYP24 (Hs00167999_m1). The real-time PCR results were analyzed using the StepOne system software V2.1. Gene expression levels were calculated using the comparative CT method, and normalized to the GAPDH expression levels

[5] = test system: PTH; assay: Serum PTH in adenine-induced uremic rats; format: in vivo, male Sprague-Dawley rats; details: adenine treated rats
From the text: (§3) Day 0 is the first day of dosing.

[6] = test system: FGF23; assay: Serum FGF23 in adenine-induced uremic rats; format: in vivo, male Sprague-Dawley rats; details: adenine treated rats, i.v. 0.2-10 mcg/kg, three times per week for two weeks
From the text: as §3

[7] = test system: PTH; assay: PTH in vitamin D deficient rats, IV and oral dosing; format: in vivo, Sprague Dawley rats; details: 160 μg/kg, 3×/week for five days
Procedure: (§4) Vitamin D deficient Sprague Dawley rats were treated with Ibii 3×/week for five days by IV and oral routes, according to the Table below: […]

[8] = Body weight in vitamin D deficient rats; format: in vivo, Sprague Dawley rats; details: IV and oral, 160 μg/kg
Procedure: as §4

[9] = test system: CYP27b1 transcription in HPK1a-ras cells; assay: CYP27b1 transcription in HPK1a-ras cells (real-time PCR); format: cell-based, human
Procedure: as §1, with “duplicate.” for “duplicate using TaqMan® gene expression assays with the following ID numbers: human GAPDH (Hs99999905_m1), human CYP24 (Hs00167999_m1).”

[10] = molecular target: T2, CYP24 (Homo sapiens, UniProt Q07973); assay: CYP24 inhibitory activity: CYP24a1 transcription in HPK1a-ras cells treated with calcitriol plus test compound; format: cell-based; details: 1 μM analog with 0.1 nM or 1 nM calcitriol, 6 hours
T2 construct: CYP24a1 relative transcription in HPK1a-ras cells treated for 6 hours with calcitriol; endogenous in cells; host or cells: HPK1a-ras cells
T2 sequence (Q07973 36-514): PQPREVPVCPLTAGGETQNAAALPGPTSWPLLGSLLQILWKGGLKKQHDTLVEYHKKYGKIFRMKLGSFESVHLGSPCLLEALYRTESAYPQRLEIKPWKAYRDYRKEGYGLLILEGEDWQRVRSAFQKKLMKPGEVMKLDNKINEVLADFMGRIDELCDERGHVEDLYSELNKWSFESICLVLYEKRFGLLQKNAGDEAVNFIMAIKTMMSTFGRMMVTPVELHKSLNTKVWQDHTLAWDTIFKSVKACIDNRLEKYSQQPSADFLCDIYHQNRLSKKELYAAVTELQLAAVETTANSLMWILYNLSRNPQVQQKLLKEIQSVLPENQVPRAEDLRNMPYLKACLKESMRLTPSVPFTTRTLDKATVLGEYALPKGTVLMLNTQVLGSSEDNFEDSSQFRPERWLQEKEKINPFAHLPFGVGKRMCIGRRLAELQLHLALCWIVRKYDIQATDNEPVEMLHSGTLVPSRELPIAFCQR
Procedure: as §2, with “Aliquots of RNA were reverse-transcribed to cDNA using oligo dT primers and Thermoscript reverse transcriptase according to the manufacturer's instructions (Invitrogen).” left out, “PCR reaction volumes of 20 μl were used with 50 cycles of amplification. Each cDNA sample was tested in duplicate using TaqMan® gene expression assays with the following ID numbers: human GAPDH (Hs99999905_m1), human CYP24 (Hs00167999_m1).” left out
Transcriptional activity of calcitriol and Prodrugs was determined by CYP24a1 relative transcription in HPK1a-ras cells treated for 6 hours with calcitriol, combinations of calcitriol with Prodrugs Icii, Idii, and Ieii, and combinations of calcitriol with 1-hydroxylated active forms of Prodrugs Icii, Idii, and Ieii which are known CYP24 inhibitors.

Row | CYP24 inhibitory effect (increased CYP24a1 transcription with calcitriol) [10] | Structure (SMILES) | binding to the VDR (in words) [2] | relative CYP24 expression (compared to calcitriol) [3] | concentration at which significant transcriptional activity (CYP24) is displayed [4] | CYP24 transcription activity (in words) [4] | other results
1 | CYP24 inhibitory effect | C=C1CCC(O)CC1=CC=C1CCCC2(C)C1CCC2C(C)CCCS(=N)(=O)c1ccccc1 (stereo not drawn) [Prodrug Icii, 3-{2-[1-(4-Benzenesulfoximine-1-methyl-butyl)-7α-methyl-octahydro-inden-4-ylidene]-ethylidene}-4-methylene-cyclohexanol] | – | inactive | – | – | –
2 | CYP24 inhibitory effect | C=C1CCC(O)CC1=CC=C1CCCC2(C)C1CCC2C(C)CCS(=O)(=O)c1ccccc1 (stereo not drawn) [Prodrug Idii, 3-{2-[1-(3-Benzenesulfonyl-1-methyl-propyl)-7α-methyl-octahydro-inden-4-ylidene]-ethylidene}-4-methylene-cyclohexanol] | – | inactive | – | – | –

Further lines, the molecule ahead of its results:

Row | Structure (SMILES) | CYP24 inhibitory effect (increased CYP24a1 transcription with calcitriol) [10] | binding to the VDR (in words) [2] | relative CYP24 expression (compared to calcitriol) [3] | concentration at which significant transcriptional activity (CYP24) is displayed [4] | CYP24 transcription activity (in words) [4] | other results
3 | C=C1CC[C@H](O)C/C1=C/C=C1\CCC[C@]2(C)C([C@H](C)CCCC(C)(C)O)CC[C@@H]12 (stereo partly drawn) [25-hydroxyvitamin D3] | – | – | – | – | – | affinity for the VDR, fold lower than the active Vitamin D hormone [1]: 100 fold
4 | C=CCO/N=C(\CCC[C@@H](C)C1=CC[C@H]2/C(=C/C=C3/C[C@@H](O)CCC3=C)CCC[C@]12C)C(C)(C)C [Prodrug IIaii, 7-{4-[2-(5-Hydroxy-2-methylene-cyclohexylidene)-ethylidene]-7α-methyl-3α,4,5,6,7,7a-hexahydro-3H-inden-1-yl}-2,2-dimethyl-octan-3-one 0-allyl-oxime] | – | do not bind to the VDR | inactive | 1000 nM | active | –
5 | C=C1CCC(O)CC1=CC=C1CCCC2(C)C1CCC2C(C)CCC(F)(F)S(=O)(=O)C(C)(C)C (stereo not drawn) [Prodrug Iaii, 3-(2-{1-[4,4-Difluoro-1-methyl-4-(2-methyl-propane-2-sulfonyl)-butyl]-7α-methyl-3,3α,5,6,7,7a-hexahydro-inden-4-ylidene}-ethylidene)-4-methylene-cyclohexanol] | – | do not bind to the VDR | inactive | 1000 nM | active | –
6 | C=C1CCC(O)CC1=CC=C1CCCC2(C)C(C(C)CC=CS(=O)(=O)C(C)(C)C)=CCC12 (stereo not drawn) [Prodrug Ibii, 4-Methylene-3-(2-{7α-methyl-1-[1-methyl-4-(2-methyl-propane-2-sulfonyl)-but-3-enyl]-3,3α,5,6,7,7a-hexahydro-inden-4-ylidene}-ethylidene)-cyclohexanol] | – | – | inactive | 100 nM | – | IC50 ([2]; read-out: B50 (concentration necessary to displace 50% of [26,27-methyl-3H]-1α,25(OH)2D3 from VDR), in vitro, human recombinant VDR): > 1 µM; potency in decreasing circulating iPTH levels versus the 1-hydroxy active form ([5]; i.v.): comparable to but lower than the 1-hydroxy active form; circulating iPTH levels in serum ([5]; i.v. 0.2-10 mcg/kg, three times per week for two weeks): can lower circulating iPTH levels; effect on serum FGF23 levels [6]: does not increase serum FGF23 levels; effect on PTH ([7]; intravenous): can effectively lower PTH; effect on PTH ([7]; oral): can effectively lower PTH; effects on body weight (overt toxicity) [8]: does not exhibit overt toxicity; induction of CYP24 transcription compared to vehicle ([4]; 100 nM, HPK1aRas cells): about 100 fold; induction of CYP24 transcription compared to vehicle ([4]; 1 μM, HPK1aRas cells): about 500 fold; potency in CYP24 transcription relative to its 1-hydroxylated analog ([4]; HPK1aRas cells): about 1/100; induction of CYP24A1 transcription at lower concentrations ([4]; concentrations below 100 nM, HPK1aRas cells): did not significantly induce; transcription of CYP27b1 compared to vehicle [9]: not significantly affected

Reference: US9775903B2, “1-deoxy analogs of 1,25-dihydroxyvitamin D3 compounds” (JOHNS HOPKINS UNIVERSITY, priority 2010, dated 2017)
